From the supplement of paper PMC10307832

Assays:
Test in all cases: relative viability (nuclei count vs DMSO), 5 days (fraction); higher = more cells survive
Idelalisib = compound: CC[C@H](Nc1ncnc2[nH]cnc12)c1nc2cccc(F)c2c(=O)n1-c1ccccc1 [Idelalisib]
Summary of the method: (§1)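 Lung cancer cell lines were seeded into 1536-well plates, kept overnight at 37 °C and pinned with five library-drug doses (not always all listed) spaced by √10. After 5 days, nuclei were Hoechst-stained, imaged at 4× and counted with MetaXpress. Viability is treated-well nuclei over vehicle-well nuclei, taken as a median across plates. Plates needed control CV below 25% and at least one doubling.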

Pemetrexed = compound: Nc1nc2[nH]cc(CCc3ccc(C(=O)N[C@@H](CCC(=O)O)C(=O)O)cc3)c2c(=O)[nH]1 [Pemetrexed]
Summary of the method: as §1

Idelalisib + Crizotinib = compound: CC[C@H](Nc1ncnc2[nH]cnc12)c1nc2cccc(F)c2c(=O)n1-c1ccccc1 [Idelalisib] + C[C@@H](Oc1cc(-c2cnn(C3CCNCC3)c2)cnc1N)c1c(Cl)ccc(F)c1Cl [Crizotinib] (partner 1 µM)
Summary of the method: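 Values are medians from duplicate plates. Each reflects relative viability, defined as the nuclei count of treated wells over that of vehicle wells. Lung cancer cell lines in 1536-well plates were pin-tool dosed one day after seeding with one drug alone or with a fixed anchor-drug dose plus five library-drug doses (not always all listed) in √10 steps, then fixed, stained and imaged at 4× after 5 days.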

Work on UMC-11 yielded a relative viability (Idelalisib; 0.04 µM) of 1.04, a relative viability (Idelalisib; 0.1265 µM) of 1.05 and a relative viability (Idelalisib; 0.4 µM) of 0.921. For the same cell line, the relative viability (Idelalisib; 1.265 µM) was 1.01, the relative viability (Idelalisib; 4 µM) was 0.984 and the relative viability (Pemetrexed; 0.002 µM) was 0.996. The relative viability (Pemetrexed; 0.006325 µM) was 0.955, the relative viability (Pemetrexed; 0.02 µM) was 1.04 and the relative viability (Pemetrexed; 0.06325 µM) was 1.03. The relative viability (Pemetrexed; 0.2 µM) was 0.846, the relative viability (Pemetrexed; 0.2 µM, anchor plate) was 0.805 and the relative viability (Idelalisib + Crizotinib; first compound 0.04 µM) was 0.708. It also gave a relative viability (Idelalisib + Crizotinib; first compound 0.1265 µM) of 0.694, a relative viability (Idelalisib + Crizotinib; first compound 0.4 µM) of 0.583 and a relative viability (Idelalisib + Crizotinib; first compound 1.265 µM) of 0.541. It also gave a relative viability (Idelalisib + Crizotinib; first compound 4 µM) of 0.57.
